Where two headings read alike, the source gives them in different places.
What was measured:
[1] = test system: SJSA-1 osteosarcoma cell line; experiment: qRT-PCR of p53 target gene mRNA in SJSA-1 cells; format: cell-based; settings: for effect on mRNA levels of Bax and Noxa: qRT-PCR
SJSA-1 = experiment: WST cell growth inhibition, SJSA-1; format: cell-based
RS4;11 = experiment: WST cell growth inhibition, RS4; format: cell-based
LANCaP = experiment: WST cell growth inhibition, LANCaP; format: cell-based
HCT-116 = experiment: WST cell growth inhibition, HCT-116; format: cell-based
HCT-116 (p53−/−) = experiment: WST cell growth inhibition, HCT-116; format: cell-based
human MDM2 protein = human MDM2 protein (Homo sapiens, UniProt Q00987); experiment: fluorescence-polarization competitive binding assay, MDM2 1–118
MDM2 18–118 protein = MDM2 18–118 protein (Homo sapiens, UniProt Q00987); experiment: FP binding assay, truncated MDM2 18–118; settings: MDM2 18–118 vs 1–118
MDM2 25–118 protein = MDM2 25–118 protein (Homo sapiens, UniProt Q00987); experiment: FP binding assay, truncated MDM2 25–118; settings: MDM2 25–118 vs 1–118
MDMx = experiment: Biolayer Interferometry binding to MDMx; settings: at 10 μM
Bcl-2 = experiment: binding to Bcl-2; settings: at 10 μM
Bcl-xL = experiment: binding to Bcl-xL; settings: at 10 μM
Mcl-1 = experiment: binding to Mcl-1; settings: at 10 μM
β-catenin = experiment: binding to β-catenin; settings: at 10 μM
[2] = stability in cell culture media and two other solutions; format: physicochemical; settings: cell culture media and two other solutions in which some spiro-oxindoles isomerize
[3] = oral pharmacokinetics in mice; format: in vivo
[4] = oral pharmacokinetics in rats; format: in vivo
[5] = oral pharmacokinetics in dogs; format: in vivo
[6] = test system: HCT-116 colon cancer cell line; experiment: qRT-PCR of p53 target gene mRNA in HCT-116 cells; format: cell-based
[7] = test system: SJSA-1, HCT-116, RS4;11 and LNCaP cell lines; experiment: Western blotting of p53 activation in four cell lines; format: cell-based
SAOS-2 = experiment: WST cell growth inhibition, SAOS-2; format: cell-based; settings: Homo sapiens, SAOS-2, read-out: Cell growth Inhibition (IC50, μM)
PC-3 = experiment: WST cell growth inhibition, PC-3; format: cell-based; settings: Homo sapiens, PC-3, read-out: Cell growth Inhibition (IC50, μM)
SW620 = experiment: WST cell growth inhibition, SW620; format: cell-based; settings: Homo sapiens, SW-620, read-out: Cell growth Inhibition (IC50, μM)
[8] = test system: wild-type p53 cancer cell lines of diverse tumor types; experiment: cell growth inhibition, wild-type p53 lines; format: cell-based
[9] = test system: cancer cell lines with a mutated or deleted p53; experiment: cell growth inhibition, mutated or deleted p53 lines; format: cell-based; settings: read-out: IC50 of cell growth inhibition
[10] = test system: SJSA-1 cells with p53 knock-down; format: cell-based
SJSA-1 xenograft tumors = experiment: SJSA-1 osteosarcoma xenograft efficacy; format: in vivo, SCID mice; settings: SJSA-1 model
RS4;11 xenograft tumors = experiment: RS4; format: in vivo, SCID mice; settings: RS4;11 model
LNCaP xenograft tumors = experiment: LNCaP prostate cancer xenograft efficacy; format: in vivo, SCID mice; settings: LNCaP model
HCT-116 xenograft tumors = experiment: HCT-116 colon cancer xenograft efficacy; format: in vivo, SCID mice; settings: HCT-116 model
SJSA-1 tumor tissue = experiment: pharmacodynamics, qRT-PCR in SJSA-1 tumor tissue; format: in vivo, mice; settings: single oral dose
[11] = test system: HCT-116 xenograft tumor tissue; experiment: pharmacodynamics, qRT-PCR in HCT-116 tumor tissue; format: in vivo, mice; settings: single oral dose, even at 200 mg/kg
[12] = test system: LNCaP prostate cancer cell line; experiment: flow cytometry cell cycle and apoptosis, LNCaP; format: cell-based
[13] = test system: HCT-116 colon cancer cell line; experiment: flow cytometry cell cycle and apoptosis, HCT-116; format: cell-based
[14] = mouse, in vivo
[15] = tolerability in efficacy experiments; settings: mice, all dose-scheduled tests of the efficacy experiments
[16] = read-out: Cell growth Inhibition (IC50), SJSA-1, p53 Wild Type
[17] = read-out: Cell growth Inhibition (IC50), RS4;11, p53 Wild Type
[18] = read-out: Cell growth Inhibition (IC50), LANCaP, p53 Wild Type
[19] = read-out: Cell growth Inhibition (IC50), HCT-116, p53 Wild Type
[20] = Homo sapiens, HCT-116, read-out: Cell growth Inhibition (IC50, μM)

CC(C)(C)C[C@H]1N[C@@H](C(=O)NCC[C@H](O)CO)[C@H](c2cccc(Cl)c2)[C@@]12C(=O)Nc1cc(Cl)c(F)cc12.Cl [MI-219]
effect on mRNA levels of Bax and Noxa ([1]; SJSA-1 cells): no significant effect
IC50 (SJSA-1; [16]): 1.4 ± 0.2 µM
IC50 (RS4;11; [17]): 1 ± 0.2 µM
IC50 (LANCaP; [18]): 1.1 ± 0.1 µM
IC50 (HCT-116; [19]): 0.95 ± 0.05 µM
IC50 (HCT-116 (p53−/−); read-out: Cell growth Inhibition (IC50), HCT-116 (p53−/−), p53 Deletion): > 10 µM

COc1ccc(C2=N[C@@H](c3ccc(Cl)cc3)[C@@H](c3ccc(Cl)cc3)N2C(=O)N2CCNC(=O)C2)c(OC(C)C)c1 [Nutlin-3a]
effect on mRNA levels of Bax and Noxa ([1]; SJSA-1 cells): no significant effect
IC50 (SJSA-1; [16]): 1.3 ± 0.2 µM
IC50 (RS4;11; [17]): 0.57 ± 0.13 µM
IC50 (LANCaP; [18]): 1.2 ± 0.4 µM
IC50 (HCT-116; [19]): 0.86 ± 0.11 µM

CC(C)(C)C[C@@H]1N[C@@H](C(=O)N[C@H]2CC[C@H](O)CC2)[C@H](c2cccc(Cl)c2F)[C@]12C(=O)Nc1cc(Cl)ccc12 [SAR405838]
times more potent than MI-219 in MDM2 binding (human MDM2 protein; comparator MI-219): > 10 times
times more potent than nutlin-3a in MDM2 binding (human MDM2 protein; comparator nutlin-3a): > 50 times
times more potent than the p53 peptide in MDM2 binding (human MDM2 protein; comparator p53 peptide): > 1,000 times
times weaker than with the MDM2 1–118 protein (MDM2 18–118 protein): 10 times
times weaker than with the MDM2 1–118 protein (MDM2 25–118 protein): 25 times
binding to MDMx (MDMx): no appreciable binding
binding to Bcl-2 (Bcl-2): no appreciable binding
binding to Bcl-xL (Bcl-xL): no appreciable binding
binding to Mcl-1 (Mcl-1): no appreciable binding
binding to β-catenin (β-catenin): no appreciable binding
stability in solution [2]: stable
oral pharmacokinetics (PK) [3]: good
oral pharmacokinetics (PK) [4]: good
oral pharmacokinetics (PK) [5]: good
EC50 ([1]; Homo sapiens, SJSA-1, read-out: EC50 of up-regulation of MDM2, p21 and PUMA mRNA): 300 to 600 nM
effect on p53 mRNA ([1]; SJSA-1 cells): no effect
times more potent than MI-219 and nutlin-3a in induction of p21 and MDM2 transcription ([1]; SJSA-1 cells): 5–10 times
induction of PUMA mRNA ([1]; SJSA-1 cells, at 1 μM): 19 fold
effect on mRNA levels of Bax and Noxa ([1]; SJSA-1 cells): no significant effect
effect on p53 mRNA ([6]; HCT-116 cells): no increase
times more potent than MI-219 and nutlin-3a in induction of p21 and MDM2 transcription ([6]; HCT-116 cells): 5–10 times
increase of PUMA mRNA ([6]; HCT-116 cells, at 1 and 3 μM): ~ 3 fold
EC50 ([6]; Homo sapiens, HCT-116, read-out: EC50 of increase of MDM2 and p21 mRNA): 700 nM
times more potent than MI-219 in activation of p53 [7]: > 10 times
IC50 (SJSA-1; Homo sapiens, SJSA-1, read-out: Cell growth Inhibition (IC50, μM)): 0.092 ± 0.019 µM
IC50 (RS4;11; Homo sapiens, RS4-11, read-out: Cell growth Inhibition (IC50, μM)): 0.089 ± 0.027 µM
IC50 (LANCaP; read-out: Cell growth Inhibition (IC50, μM)): 0.27 ± 0.03 µM
IC50 (HCT-116; [20]): 0.2 ± 0.04 µM
IC50 (HCT-116 (p53−/−); [20]): > 20 µM
IC50 (SAOS-2): > 10 µM
IC50 (PC-3): > 10 µM
IC50 (SW620): > 10 µM
times more potent than MI-219 and nutlin-3a in inhibition of cell growth [8]: 5–10 times
IC50 [9]: ≥ 10000 nM
reduction of potency in cell growth inhibition by p53 knock-down [10]: > 20 times
antitumor activity (SJSA-1 xenograft tumors; 10 mg/kg daily oral for 2 weeks): no significant activity
antitumor activity (SJSA-1 xenograft tumors; 30 mg/kg daily oral for 2 weeks): partial tumor regression
antitumor activity (SJSA-1 xenograft tumors; 100 mg/kg daily oral for 2 weeks): rapid, complete and persistent tumor regression
shrinkage of average tumor volume (SJSA-1 xenograft tumors; 100 mg/kg daily oral, after four doses): > 90%
tumor free mice (SJSA-1 xenograft tumors; 100 mg/kg daily, day 55, 31 days after the last dose, of 8 mice): 8 mice
tumor free animals (SJSA-1 xenograft tumors; 100 mg/kg daily, day 73, 2 months after the last dose, 5 out of 8): 63%
antitumor activity (SJSA-1 xenograft tumors; single 100 mg/kg oral dose): effectively inhibits tumor growth
mice with complete tumor regression (SJSA-1 xenograft tumors; single oral dose of 200 mg/kg): 100%
antitumor activity (RS4;11 xenograft tumors; 50 mg/kg daily dosing): partial tumor regression
antitumor activity (RS4;11 xenograft tumors; 100 mg/kg daily dosing): complete tumor regression
antitumor activity (RS4;11 xenograft tumors; 200 mg/kg daily dosing): complete tumor regression
tumor free mice (RS4;11 xenograft tumors; 200 mg/kg, day 71, 25 days after the last dose, of 8 mice): 8 mice
tumor growth inhibition over the vehicle control (LNCaP xenograft tumors; 50 mg/kg daily for 4 weeks): 70%
antitumor activity (LNCaP xenograft tumors; 100 mg/kg daily for 4 weeks): completely inhibits tumor growth
tumor regression (LNCaP xenograft tumors; 200 mg/kg daily for 4 weeks): 80%
tumor growth inhibition over the vehicle control (HCT-116 xenograft tumors; 100 mg/kg daily dosing, end of the treatment): > 80%
antitumor activity (HCT-116 xenograft tumors; 200 mg/kg daily dosing): completely inhibits tumor growth
increase of PUMA mRNA (SJSA-1 tumor tissue): > 40 fold
maximum induction of PUMA mRNA over the control [11]: 3 fold
concentration that effectively inhibits cell cycle progression ([12]; 24 h treatment): ≥ 0.3 µM
apoptosis induction ([12]; even at 10 μM): modest or minimal effect
concentration that effectively inhibits cell cycle progression ([13]; HCT-116, 24 h treatment): ≥ 0.3 µM
apoptosis induction ([13]; HCT-116, even at 10 μM): modest or minimal effect
signs of toxicity [14]: no signs of toxicity
weight loss [15]: less than 10%

Reference: paper PMC4247201 (Cancer research, 2014)
